Earlier results on one molecule are cited in US4873092A, “Slow-releasing preparation” (Murata Kikai Kabushiki Kaisha, priority 1987, dated 1989).

Each structure is given as a SMILES string.

For the data set the following is noted: mouce.

Take `COc1cccc2c1C(=O)c1c(O)c3c(c(O)c1C2=O)C[C@@](O)(C(=O)CO)C[C@@H]3O[C@H]1C[C@H](N)[C@H](O)[C@H](C)O1` [Adriamycin]: the LD50 value is given as 9.8 mg/kg.
